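Compound exposure: 48 hours, 5 concentrations, 96-well plates. TGI denotes the concentration required for complete inhibition of growth.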
Assays:
Experiment in all cases: DTP human tumour cell line panel, 48 h
786-0 renal = system: 786-0 renal
A498 renal = system: A498 renal
A549 NSCLC = system: A549 NSCLC
ACHN renal = system: ACHN renal
BT-549 breast = system: BT-549 breast
CAKI-1 renal = system: CAKI-1 renal
CCRF-CEM leukemia = system: CCRF-CEM leukemia
COLO 205 colon = system: COLO 205 colon
DU-145 prostate = system: DU-145 prostate
EKVX NSCLC = system: EKVX NSCLC
HCC-2998 colon = system: HCC-2998 colon
HCT-116 colon = system: HCT-116 colon
HCT-15 colon = system: HCT-15 colon
HL-60(TB) leukemia = system: HL-60(TB) leukemia
HOP-62 NSCLC = system: HOP-62 NSCLC
HOP-92 NSCLC = system: HOP-92 NSCLC
HS 578T breast = system: HS 578T breast
HT29 colon = system: HT29 colon
IGROV1 ovarian = system: IGROV1 ovarian
K-562 leukemia = system: K-562 leukemia
KM12 colon = system: KM12 colon
LOX IMVI melanoma = system: LOX IMVI melanoma
M14 melanoma = system: M14 melanoma
MALME-3M melanoma = system: MALME-3M melanoma
MCF7 breast = system: MCF7 breast
MDA-MB-231 breast = system: MDA-MB-231 breast
MDA-MB-435 = system: MDA-MB-435
MDA-N = system: MDA-N
MOLT-4 leukemia = system: MOLT-4 leukemia
NCI-H226 lung = system: NCI-H226 lung
NCI-H23 lung = system: NCI-H23 lung
NCI-H460 lung = system: NCI-H460 lung
NCI-H522 lung = system: NCI-H522 lung
NCI/ADR-RES ovarian = system: NCI/ADR-RES ovarian
OVCAR-3 ovarian = system: OVCAR-3 ovarian
OVCAR-4 ovarian = system: OVCAR-4 ovarian
OVCAR-5 ovarian = system: OVCAR-5 ovarian
OVCAR-8 ovarian = system: OVCAR-8 ovarian
PC-3 prostate = system: PC-3 prostate
RPMI-8226 leukemia = system: RPMI-8226 leukemia
RXF 393 renal = system: RXF 393 renal
SF-268 CNS = system: SF-268 CNS
SF-295 CNS = system: SF-295 CNS
SF-539 CNS = system: SF-539 CNS
SK-MEL-2 melanoma = system: SK-MEL-2 melanoma
SK-MEL-28 melanoma = system: SK-MEL-28 melanoma
SK-MEL-5 melanoma = system: SK-MEL-5 melanoma
SK-OV-3 ovarian = system: SK-OV-3 ovarian
SN12C renal = system: SN12C renal
SNB-19 CNS = system: SNB-19 CNS
SNB-75 CNS = system: SNB-75 CNS
SR leukemia = system: SR leukemia
SW-620 colon = system: SW-620 colon
T-47D breast = system: T-47D breast
TK-10 renal = system: TK-10 renal
U251 CNS = system: U251 CNS
UACC-257 melanoma = system: UACC-257 melanoma
UACC-62 melanoma = system: UACC-62 melanoma
UO-31 renal = system: UO-31 renal

## Cc1cccc2c(N)c3cccc(C(=O)NCC[N+](C)(C)Cc4ccc([N+](=O)[O-])n4C)c3nc12
786-0 renal
  TGI: > 63.9 µM
A498 renal
  TGI: > 63.1 µM
A549 NSCLC
  TGI: > 52.2 µM
ACHN renal
  TGI: 56.1 µM
BT-549 breast
  TGI: > 71.3 µM
CAKI-1 renal
  TGI: > 51.2 µM
CCRF-CEM leukemia
  TGI: 41.8 µM
COLO 205 colon
  TGI: 66.7 µM
DU-145 prostate
  TGI: > 75.3 µM
EKVX NSCLC
  TGI: > 100 µM
HCC-2998 colon
  TGI: 55.8 µM
HCT-116 colon
  TGI: 68.3 µM
HCT-15 colon
  TGI: > 78 µM
HL-60(TB) leukemia
  TGI: 29.2 µM
HOP-62 NSCLC
  TGI: 61.7 µM
HOP-92 NSCLC
  TGI: > 100 µM
HS 578T breast
  TGI: 41 µM
HT29 colon
  TGI: 59 µM
IGROV1 ovarian
  TGI: 58.4 µM
K-562 leukemia
  TGI: > 31.6 µM
KM12 colon
  TGI: 63.4 µM
LOX IMVI melanoma
  TGI: > 64.9 µM
M14 melanoma
  TGI: > 69.6 µM
MALME-3M melanoma
  TGI: 41.3 µM
MCF7 breast
  TGI: > 62.5 µM
MDA-MB-231 breast
  TGI: > 72.6 µM
MDA-MB-435
  TGI: > 85.2 µM
MDA-N
  TGI: > 81.2 µM
MOLT-4 leukemia
  TGI: 25.4 µM
NCI-H226 lung
  TGI: 53.3 µM
NCI-H23 lung
  TGI: > 65.1 µM
NCI-H460 lung
  TGI: > 46.6 µM
NCI-H522 lung
  TGI: 35.8 µM
NCI/ADR-RES ovarian
  TGI: 98.9 µM
OVCAR-3 ovarian
  TGI: > 73.1 µM
OVCAR-4 ovarian
  TGI: > 74.7 µM
OVCAR-5 ovarian
  TGI: > 70.8 µM
OVCAR-8 ovarian
  TGI: 64.1 µM
PC-3 prostate
  TGI: > 75.2 µM
RPMI-8226 leukemia
  TGI: 52.5 µM
RXF 393 renal
  TGI: > 72.7 µM
SF-268 CNS
  TGI: 61.9 µM
SF-295 CNS
  TGI: > 89.3 µM
SF-539 CNS
  TGI: 52.5 µM
SK-MEL-2 melanoma
  TGI: > 100 µM
SK-MEL-28 melanoma
  TGI: > 100 µM
SK-MEL-5 melanoma
  TGI: 59 µM
SK-OV-3 ovarian
  TGI: > 78 µM
SN12C renal
  TGI: > 57.3 µM
SNB-19 CNS
  TGI: > 100 µM
SNB-75 CNS
  TGI: 43.2 µM
SR leukemia
  TGI: 36.6 µM
SW-620 colon
  TGI: > 82.2 µM
T-47D breast
  TGI: > 85.9 µM
TK-10 renal
  TGI: > 100 µM
U251 CNS
  TGI: 63.4 µM
UACC-257 melanoma
  TGI: > 80.9 µM
UACC-62 melanoma
  TGI: > 79.6 µM
UO-31 renal
  TGI: 74.7 µM

## C=C1C(=O)OC2C1CCC(=C)C1CC(O)C(=C)C12 (stereo unspecified)
786-0 renal
  TGI: 19.6 µM
A498 renal
  TGI: 38 µM
A549 NSCLC
  TGI: 55.7 µM
ACHN renal
  TGI: 7.99 µM
BT-549 breast
  TGI: 30.4 µM
CAKI-1 renal
  TGI: 9.78 µM
CCRF-CEM leukemia
  TGI: 7.44 µM
COLO 205 colon
  TGI: 6.89 µM
DU-145 prostate
  TGI: 29 µM
EKVX NSCLC
  TGI: 20.3 µM
HCC-2998 colon
  TGI: 27.9 µM
HCT-116 colon
  TGI: 26.4 µM
HCT-15 colon
  TGI: 25.1 µM
HL-60(TB) leukemia
  TGI: 5.79 µM
HOP-62 NSCLC
  TGI: 49.8 µM
HOP-92 NSCLC
  TGI: 11.3 µM
HS 578T breast
  TGI: > 100 µM
HT29 colon
  TGI: 19.3 µM
IGROV1 ovarian
  TGI: 28 µM
K-562 leukemia
  TGI: 21.4 µM
KM12 colon
  TGI: 30.4 µM
LOX IMVI melanoma
  TGI: 20.9 µM
M14 melanoma
  TGI: 41 µM
MALME-3M melanoma
  TGI: 30.1 µM
MCF7 breast
  TGI: 25.5 µM
MDA-MB-231 breast
  TGI: 31.6 µM
MDA-MB-435
  TGI: 58.8 µM
MDA-N
  TGI: 26.7 µM
MOLT-4 leukemia
  TGI: 25 µM
NCI-H226 lung
  TGI: > 63.1 µM
NCI-H23 lung
  TGI: 34 µM
NCI-H460 lung
  TGI: 36.6 µM
NCI-H522 lung
  TGI: 6.39 µM
NCI/ADR-RES ovarian
  TGI: 54.9 µM
OVCAR-3 ovarian
  TGI: 27.9 µM
OVCAR-4 ovarian
  TGI: 33.7 µM
OVCAR-5 ovarian
  TGI: 26.3 µM
OVCAR-8 ovarian
  TGI: 60.4 µM
PC-3 prostate
  TGI: 28 µM
RPMI-8226 leukemia
  TGI: 23 µM
RXF 393 renal
  TGI: 29.9 µM
SF-268 CNS
  TGI: 31.7 µM
SF-295 CNS
  TGI: > 100 µM
SF-539 CNS
  TGI: 35.2 µM
SK-MEL-2 melanoma
  TGI: 32.7 µM
SK-MEL-28 melanoma
  TGI: 32 µM
SK-MEL-5 melanoma
  TGI: 30.6 µM
SK-OV-3 ovarian
  TGI: > 100 µM
SN12C renal
  TGI: 31.9 µM
SNB-19 CNS
  TGI: 66.6 µM
SNB-75 CNS
  TGI: 37.3 µM
SR leukemia
  TGI: 10.8 µM
SW-620 colon
  TGI: 43.6 µM
T-47D breast
  TGI: 42.8 µM
TK-10 renal
  TGI: 20.6 µM
U251 CNS
  TGI: 50.3 µM
UACC-257 melanoma
  TGI: 27.2 µM
UACC-62 melanoma
  TGI: 26.6 µM
UO-31 renal
  TGI: 29.5 µM

## O=[N+]([O-])c1cc(C2(N3CCCCC3)CCCCC2)sc1Br
786-0 renal
  TGI: 39.2 µM
A498 renal
  TGI: 16.1 µM
A549 NSCLC
  TGI: 33.7 µM
ACHN renal
  TGI: 11.5 µM
BT-549 breast
  TGI: 24.3 µM
CAKI-1 renal
  TGI: 15.6 µM
CCRF-CEM leukemia
  TGI: 7.33 µM
COLO 205 colon
  TGI: 17.7 µM
DU-145 prostate
  TGI: 10.2 µM
EKVX NSCLC
  TGI: 24.6 µM
HCC-2998 colon
  TGI: 3.41 µM
HCT-116 colon
  TGI: 35.5 µM
HCT-15 colon
  TGI: 17.2 µM
HL-60(TB) leukemia
  TGI: 5.24 µM
HOP-62 NSCLC
  TGI: 17.3 µM
HOP-92 NSCLC
  TGI: 21.7 µM
HS 578T breast
  TGI: > 58.5 µM
HT29 colon
  TGI: 15.4 µM
IGROV1 ovarian
  TGI: 25.1 µM
K-562 leukemia
  TGI: 14.1 µM
KM12 colon
  TGI: 20.2 µM
LOX IMVI melanoma
  TGI: 15.1 µM
M14 melanoma
  TGI: 21.9 µM
MALME-3M melanoma
  TGI: 20 µM
MCF7 breast
  TGI: 8.6 µM
MDA-MB-231 breast
  TGI: 27.4 µM
MDA-MB-435
  TGI: 17 µM
MDA-N
  TGI: 23.3 µM
MOLT-4 leukemia
  TGI: 8.12 µM
NCI-H226 lung
  TGI: 28.1 µM
NCI-H23 lung
  TGI: 26.5 µM
NCI-H460 lung
  TGI: 29.5 µM
NCI-H522 lung
  TGI: 6.78 µM
NCI/ADR-RES ovarian
  TGI: 28.2 µM
OVCAR-3 ovarian
  TGI: 7.4 µM
OVCAR-4 ovarian
  TGI: 27.1 µM
OVCAR-5 ovarian
  TGI: 38.2 µM
OVCAR-8 ovarian
  TGI: 24 µM
PC-3 prostate
  TGI: 13.1 µM
RPMI-8226 leukemia
  TGI: 4.45 µM
RXF 393 renal
  TGI: 13.2 µM
SF-268 CNS
  TGI: 28.1 µM
SF-295 CNS
  TGI: 30.1 µM
SF-539 CNS
  TGI: 17.9 µM
SK-MEL-2 melanoma
  TGI: 21.4 µM
SK-MEL-28 melanoma
  TGI: 23.9 µM
SK-MEL-5 melanoma
  TGI: 18.7 µM
SK-OV-3 ovarian
  TGI: 31.2 µM
SN12C renal
  TGI: 21.8 µM
SNB-19 CNS
  TGI: 27.6 µM
SR leukemia
  TGI: 10.7 µM
SW-620 colon
  TGI: 21.3 µM
T-47D breast
  TGI: 4.64 µM
TK-10 renal
  TGI: 6.61 µM
U251 CNS
  TGI: 19.1 µM
UACC-257 melanoma
  TGI: 4.51 µM
UACC-62 melanoma
  TGI: 23.5 µM
UO-31 renal
  TGI: 24.6 µM

— PubChem BioAssay (NCI)
